This note sets out measurements from patent publication US20170196854A1, “USE OF ANTHELMINTIC AGENTS AGAINST DIROFILARIA IMMITIS” (INTERVET INTERNATIONAL B.V., priority 2014, published 2017).

For experiment [1], the system named is L4 larvae of Dirofilaria immitis. Nature of the experiment: microbe, parasite or virus in culture. The conditions noted are these: 72 h, read-out: MIC100 (lowest dose that results in complete loss of motility). The format is cell-based.
For experiment [2], the system named is Dirofilaria immitis microfilariae. Briefly: Microfilaricidal activity against Dirofilaria immitis microfilariae in 96-well plates. Format: cell-based. The note with it: in Canis lupus familiaris, read-out: EC50 (half maximal effective concentration), microfilaricidal activity.

pEC50: −log10 of the molar value. A value given as a limit tells only on which side of the number the result lay.

With `C[C@@H](CN1CCN(c2ccc(OC(F)(F)F)cc2)CC1)C(=O)N1CCC(Nc2ccc([N+](=O)[O-])c(C(F)(F)F)c2)CC1` [Example 1037], the MIC in experiment [1] was less than 5 µM. Moreover, the pEC50 in experiment [2] was greater than 5.00.
